Values joined by “and” are separate entries in the source; they are usually repeats but may differ in a detail not shown here. Equal entries are not always repeated. Values belong to the compound of their own block, whether it stands above or below them.
Tests used:
[1] = Plasma concentration in athymic nu/nu CD-1 mouse at 100 mg/kg, po measured at 1 hr by HPLC - UV analysis; type: ADME, organism-based
[2] = Plasma concentration in athymic nu/nu CD-1 mouse at 100 mg/kg, po measured at 8 hrs by HPLC - UV analysis; type: ADME, organism-based
[3] = Plasma concentration in athymic nu/nu CD-1 mouse at 100 mg/kg, po measured at 16 hrs by HPLC - UV analysis; type: ADME, organism-based
[4] = Plasma concentration in athymic nu/nu CD-1 mouse at 100 mg/kg, po measured at 4 hrs by HPLC - UV analysis; type: ADME, organism-based
[5] = target: Cytochrome P450 3A4 (Homo sapiens, UniProt P08684); assay: Inhibition of CYP3A4 (unknown origin) using luciferin as substrate in presence of NADPH generating system incubated for 20 mins by luminescent method; type: ADME
Sequence of Cytochrome P450 3A4 (P08684 whole entry): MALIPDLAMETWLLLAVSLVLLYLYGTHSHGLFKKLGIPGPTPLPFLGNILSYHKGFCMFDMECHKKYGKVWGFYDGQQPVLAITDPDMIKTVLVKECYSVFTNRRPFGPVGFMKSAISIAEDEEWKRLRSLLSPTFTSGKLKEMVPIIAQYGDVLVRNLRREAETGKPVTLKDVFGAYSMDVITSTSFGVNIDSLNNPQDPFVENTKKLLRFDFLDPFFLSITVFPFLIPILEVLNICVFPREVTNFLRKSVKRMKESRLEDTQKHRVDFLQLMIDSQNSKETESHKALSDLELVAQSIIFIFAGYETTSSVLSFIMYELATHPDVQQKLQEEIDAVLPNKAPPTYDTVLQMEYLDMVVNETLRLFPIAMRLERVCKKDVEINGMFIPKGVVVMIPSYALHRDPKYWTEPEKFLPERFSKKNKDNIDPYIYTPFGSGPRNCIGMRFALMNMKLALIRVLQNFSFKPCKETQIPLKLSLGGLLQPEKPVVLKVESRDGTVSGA

[6] = Oral bioavailability in Sprague-Dawley rat administered at 20 mg/kg measured after 1 to 24 hrs by HPLC-MS/MS analysis; type: ADME, organism-based; settings: in vivo, time 1-24 hrs
[7] = in vitro; settings: mouse, liver microsomes
Description: Microsomal stability in mouse liver microsomes assessed as extraction ratio in presence of NADPH for 0 to 40 mins by LC-MS/MS analysis

[8] = AUC (0 to infinity) in Sprague-Dawley rat at 20 mg/kg, po measured after 1 to 24 hrs by HPLC-MS/MS analysis; type: ADME, organism-based; settings: in vivo, time 1-24 hrs
[9] = Elimination half life in Sprague-Dawley rat at 20 mg/kg, po measured after 1 to 24 hrs by HPLC-MS/MS analysis; type: ADME, organism-based; settings: in vivo, time 1-24 hrs, read-out: beta t1/2 (converted)
[10] = Volume of distribution at steady state in Sprague-Dawley rat at 5 mg/kg, iv measured after 1 to 24 hrs by HPLC-MS/MS analysis; type: ADME, organism-based; settings: in vivo, time 1-24 hrs, read-out: Vdss
[11] = target: T1, Insulin-like growth factor 1 receptor (Homo sapiens, UniProt P08069); assay: Inhibition of human recombinant IGF-1 receptor expressed in mouse 3T3 cells treated for 15 mins by ELISA analysis; type: cell-based
T1 sequence (P08069 31-736 limits assumed): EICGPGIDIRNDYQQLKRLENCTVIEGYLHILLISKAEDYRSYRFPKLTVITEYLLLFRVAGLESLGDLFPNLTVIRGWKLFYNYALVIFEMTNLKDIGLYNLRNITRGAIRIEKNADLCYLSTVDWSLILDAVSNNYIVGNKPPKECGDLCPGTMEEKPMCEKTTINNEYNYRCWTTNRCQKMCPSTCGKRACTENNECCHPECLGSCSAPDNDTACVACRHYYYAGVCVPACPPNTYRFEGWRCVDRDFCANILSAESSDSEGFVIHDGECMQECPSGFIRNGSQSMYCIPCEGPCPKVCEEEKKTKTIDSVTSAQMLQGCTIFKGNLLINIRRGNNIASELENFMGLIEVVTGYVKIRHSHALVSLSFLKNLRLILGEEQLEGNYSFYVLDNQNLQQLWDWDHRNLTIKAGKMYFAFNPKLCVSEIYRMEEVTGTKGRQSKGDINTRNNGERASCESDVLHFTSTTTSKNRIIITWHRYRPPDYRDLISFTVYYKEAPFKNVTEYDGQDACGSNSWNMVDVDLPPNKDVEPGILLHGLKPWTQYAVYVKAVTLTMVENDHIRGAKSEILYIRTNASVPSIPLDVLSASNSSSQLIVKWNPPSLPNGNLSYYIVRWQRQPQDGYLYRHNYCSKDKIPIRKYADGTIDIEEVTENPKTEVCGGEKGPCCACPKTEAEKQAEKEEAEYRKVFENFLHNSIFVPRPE
T1 sequence (P08069 741-1367 limits assumed): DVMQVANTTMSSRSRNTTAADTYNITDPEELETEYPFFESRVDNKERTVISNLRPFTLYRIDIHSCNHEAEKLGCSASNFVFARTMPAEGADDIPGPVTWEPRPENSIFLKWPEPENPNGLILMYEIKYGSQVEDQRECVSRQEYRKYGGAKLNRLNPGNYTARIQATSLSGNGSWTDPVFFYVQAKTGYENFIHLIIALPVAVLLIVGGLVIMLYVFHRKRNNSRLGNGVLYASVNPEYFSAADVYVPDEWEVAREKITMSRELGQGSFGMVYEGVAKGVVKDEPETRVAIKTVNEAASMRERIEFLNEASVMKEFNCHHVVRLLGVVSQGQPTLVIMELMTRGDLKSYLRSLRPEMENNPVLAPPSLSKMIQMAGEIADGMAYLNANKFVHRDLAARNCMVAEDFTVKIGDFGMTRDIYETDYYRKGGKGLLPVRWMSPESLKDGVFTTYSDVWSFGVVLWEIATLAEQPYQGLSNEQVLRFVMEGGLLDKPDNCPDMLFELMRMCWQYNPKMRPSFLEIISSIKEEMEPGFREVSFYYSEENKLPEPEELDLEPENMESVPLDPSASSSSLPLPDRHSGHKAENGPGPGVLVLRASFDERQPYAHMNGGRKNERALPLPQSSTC

[12] = target: T1, Insulin-like growth factor 1 receptor; assay: Inhibition of human recombinant IGF-1 receptor in presence of ATP by ELISA analysis
[13] = Elimination half life in Sprague-Dawley rat at 5 mg/kg, iv measured after 1 to 24 hrs by HPLC-MS/MS analysis; type: ADME, organism-based; settings: in vivo, time 1-24 hrs, read-out: beta t1/2 (converted)
[14] = in vitro; settings: human, liver microsomes
Description: Microsomal stability in human liver microsomes assessed as extraction ratio in presence of NADPH for 0 to 40 mins by LC-MS/MS analysis

[15] = AUC (0 to infinity) in CD-1 mouse at 25 mg/kg, po measured after 1 to 24 hrs by HPLC-MS/MS analysis; type: ADME, organism-based; settings: in vivo, time 1-24 hrs
[16] = Oral bioavailability in CD-1 mouse administered at 25 mg/kg measured after 1 to 24 hrs by HPLC-MS/MS analysis; type: ADME, organism-based; settings: in vivo, time 1-24 hrs
[17] = Plasma concentration in Sprague-Dawley rat at 20 mg/kg, po measured after 24 hrs by HPLC-MS/MS analysis; type: ADME, organism-based
[18] = Elimination half life in CD-1 mouse at 25 mg/kg, po measured after 1 to 24 hrs by HPLC-MS/MS analysis; type: ADME, organism-based; settings: in vivo, time 1-24 hrs, read-out: beta t1/2 (converted)
[19] = Microsomal stability in rat liver microsomes assessed as extraction ratio in presence of NADPH for 0 to 40 mins by LC-MS/MS analysis; type: ADME, Microsome; settings: time 0-40 min, read-out: ERH
[20] = Volume of distribution at steady state in CD-1 mouse at 10 mg/kg, iv measured after 1 to 24 hrs by HPLC-MS/MS analysis; type: ADME, organism-based; settings: in vivo, time 1-24 hrs, read-out: Vdss
[21] = Clearance in Sprague-Dawley rat at 5 mg/kg, iv measured after 1 to 24 hrs by HPLC-MS/MS analysis; type: ADME, organism-based; settings: in vivo, time 1-24 hrs
[22] = Microsomal stability in dog liver microsomes assessed as extraction ratio in presence of NADPH for 0 to 40 mins by LC-MS/MS analysis; type: ADME, Canis lupus familiaris, Microsome; settings: time 0-40 min, read-out: ERH
[23] = Plasma concentration in CD-1 mouse at 25 mg/kg, po measured after 24 hrs by HPLC-MS/MS analysis; type: ADME, organism-based
[24] = Cmax in CD-1 mouse at 25 mg/kg, po measured after 1 to 24 hrs by HPLC-MS/MS analysis; type: ADME, organism-based; settings: in vivo, time 1-24 hrs
[25] = Cmax in Sprague-Dawley rat at 20 mg/kg, po measured after 1 to 24 hrs by HPLC-MS/MS analysis; type: ADME, organism-based; settings: in vivo, time 1-24 hrs
[26] = Elimination half life in CD-1 mouse at 10 mg/kg, iv measured after 1 to 24 hrs by HPLC-MS/MS analysis; type: ADME, organism-based; settings: in vivo, time 1-24 hrs, read-out: beta t1/2 (converted)
[27] = Clearance in CD-1 mouse at 10 mg/kg, iv measured after 1 to 24 hrs by HPLC-MS/MS analysis; type: ADME, organism-based; settings: in vivo, time 1-24 hrs
[28] = AUC (0 to infinity) in CD-1 mouse at 50 mg/kg, po measured after 1 to 24 hrs by HPLC-MS/MS analysis; type: ADME, organism-based; settings: in vivo, time 1-24 hrs
[29] = Elimination half life in CD-1 mouse at 5 mg/kg, iv measured after 1 to 24 hrs by HPLC-MS/MS analysis; type: ADME, organism-based; settings: in vivo, time 1-24 hrs, read-out: beta t1/2 (converted)
[30] = Elimination half life in CD-1 mouse at 50 mg/kg, po measured after 1 to 24 hrs by HPLC-MS/MS analysis; type: ADME, organism-based; settings: in vivo, time 1-24 hrs, read-out: beta t1/2 (converted)
[31] = Volume of distribution at steady state in CD-1 mouse at 5 mg/kg, iv measured after 1 to 24 hrs by HPLC-MS/MS analysis; type: ADME, organism-based; settings: in vivo, time 1-24 hrs, read-out: Vdss
[32] = Cmax in CD-1 mouse at 50 mg/kg, po measured after 1 to 24 hrs by HPLC-MS/MS analysis; type: ADME, organism-based; settings: in vivo, time 1-24 hrs
[33] = Clearance in CD-1 mouse at 5 mg/kg, iv measured after 1 to 24 hrs by HPLC-MS/MS analysis; type: ADME, organism-based; settings: in vivo, time 1-24 hrs
[34] = Oral bioavailability in CD-1 mouse administered at 50 mg/kg measured after 1 to 24 hrs by HPLC-MS/MS analysis; type: ADME, organism-based; settings: in vivo, time 1-24 hrs

concentration at 1 h [1]: 4590 ng/mL and 11.3 µM
concentration at 8 h [2]: 4650 ng/mL and 11.4 µM
concentration at 16 h [3]: 2360 ng/mL and 5.8 µM
concentration at 4 h [4]: 3660 ng/mL and 8.99 µM
SMILES: Nc1nccn2c(C3CC(O)C3)nc(-c3ccc4ccc(-c5ccccc5)nc4c3)c12 (stereo not drawn)

IC50 [5]: 8300 nM
bioavailability [6]: 100%
hepatic extraction ratio [7]: 0.53
AUC(0-inf) [8]: 28700 ng·h/mL
half-life [9]: 28.7 h
Vd [10]: 21 L/kg
IC50 [11]: 19 nM
IC50 [12]: 24 nM
half-life [13]: 20 h
hepatic extraction ratio [14]: 0.59
AUC(0-inf) [15]: 34500 ng·h/mL
bioavailability [16]: 100%
concentration at 24 h [17]: 740 nM
half-life [18]: 23.6 h
hepatic extraction ratio [19]: 0.21
Vd [20]: 8 L/kg
clearance [21]: 16 mL/min/kg
hepatic extraction ratio [22]: 0.5
concentration at 24 h [23]: 1040 nM
Cmax [24]: 2200 nM
Cmax [25]: 1350 nM
half-life [26]: 5 h
clearance [27]: 19 mL/min/kg
SMILES: CN1CCN([C@H]2C[C@@H](c3nc(-c4ccc5ccc(-c6ccccc6)nc5c4)c4c(N)nccn43)C2)CC1

concentration at 1 h [1]: 3200 ng/mL and 8.19 µM
IC50 [5]: 3300 nM
AUC(0-inf) [28]: 5170 ng·h/mL
half-life [29]: 0.98 h
half-life [30]: 0.98 h
Vd [31]: 6.25 L/kg
Cmax [32]: 2680 nM
clearance [33]: 90 mL/min/kg
concentration at 8 h [2]: 3110 ng/mL and 7.95 µM
concentration at 16 h [3]: 1030 ng/mL and 2.64 µM
bioavailability [34]: 56%
concentration at 4 h [4]: 1810 ng/mL and 4.62 µM
SMILES: Nc1nccn2c(C3CCC3)nc(-c3ccc4ccc(-c5ccccc5)nc4c3)c12

AUC(0-inf) [28]: 52500 ng·h/mL
IC50 [11]: 42 nM
Cmax [32]: 11400 nM
bioavailability [34]: 77%
SMILES: Nc1nccn2c1c(-c1ccc3ccc(-c4ccccc4)nc3c1)nc2[C@H]1CC[C@H](C(N)=O)CC1
